Laboratory results reported in ChEMBL document CHEMBL4811262, “Parallel discovery of selective and dual inhibitors of tryptophan dioxygenases IDO1 and TDO2 with a newly-modified enzymatic assay” (Bioorg Med Chem, 2021).

What was measured:
[1] = biological target: T1, Indoleamine 2,3-dioxygenase 1 (Homo sapiens, UniProt P14902); assay: Inhibition of recombinant human IDO1 expressed in Escherichia coli EC538 assessed as reduction in N-formylkynurenine formation using L-tryptophan as substrate incubated for 30 mins by methylene blue reagent based concurrent assay
[2] = biological target: T2, Tryptophan 2,3-dioxygenase (Homo sapiens, UniProt P48775); assay: Inhibition of recombinant human TDO2 expressed in Escherichia coli BL21 (DE3) assessed as reduction in N-formylkynurenine formation using L-tryptophan as substrate incubated for 30 mins by methylene blue reagent based concurrent assay
[3] = biological target: T1, Indoleamine 2,3-dioxygenase 1; assay: Inhibition of recombinant human IDO1 expressed in Escherichia coli EC538 assessed as reduction in N-formylkynurenine formation using L-tryptophan as substrate incubated for 30 mins by methylene blue reagent based assay
[4] = biological target: Tryptophan 2,3-dioxygenase (Rattus norvegicus, UniProt P21643); assay: Inhibition of TDO2 in rat liver homogenate assessed as reduction in N-formylkynurenine formation using L-tryptophan as substrate incubated for 1 hr; type: tissue-based
[5] = biological target: T2, Tryptophan 2,3-dioxygenase; assay: Inhibition of recombinant human TDO2 expressed in Escherichia coli BL21 (DE3) assessed as reduction in N-formylkynurenine formation using L-tryptophan as substrate incubated for 30 mins by methylene blue reagent based assay

T1 sequence (P14902 whole entry): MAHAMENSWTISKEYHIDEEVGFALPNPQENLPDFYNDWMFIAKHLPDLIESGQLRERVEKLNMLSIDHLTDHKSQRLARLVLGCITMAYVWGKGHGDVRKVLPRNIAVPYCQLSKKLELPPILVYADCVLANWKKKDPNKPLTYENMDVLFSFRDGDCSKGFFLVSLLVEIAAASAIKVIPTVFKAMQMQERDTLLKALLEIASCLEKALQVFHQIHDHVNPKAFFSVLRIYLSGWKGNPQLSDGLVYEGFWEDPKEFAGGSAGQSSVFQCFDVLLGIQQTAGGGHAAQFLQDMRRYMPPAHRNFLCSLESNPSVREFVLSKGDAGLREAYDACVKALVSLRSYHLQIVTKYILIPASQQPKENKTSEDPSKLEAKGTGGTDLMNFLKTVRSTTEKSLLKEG
T2 sequence (P48775 whole entry): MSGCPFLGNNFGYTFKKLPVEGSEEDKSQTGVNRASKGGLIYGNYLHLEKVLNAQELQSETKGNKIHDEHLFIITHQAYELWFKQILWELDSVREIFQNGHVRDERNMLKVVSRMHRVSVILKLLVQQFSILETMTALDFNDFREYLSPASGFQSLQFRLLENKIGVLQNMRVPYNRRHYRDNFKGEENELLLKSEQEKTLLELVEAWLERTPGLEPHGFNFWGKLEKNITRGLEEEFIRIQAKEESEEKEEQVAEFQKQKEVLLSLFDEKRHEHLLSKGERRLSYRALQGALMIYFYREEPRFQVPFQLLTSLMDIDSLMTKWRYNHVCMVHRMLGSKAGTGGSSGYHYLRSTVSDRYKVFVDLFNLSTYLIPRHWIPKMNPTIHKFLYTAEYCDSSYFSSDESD
Sequence of Tryptophan 2,3-dioxygenase (Rattus norvegicus, UniProt P21643) (P21643 whole entry): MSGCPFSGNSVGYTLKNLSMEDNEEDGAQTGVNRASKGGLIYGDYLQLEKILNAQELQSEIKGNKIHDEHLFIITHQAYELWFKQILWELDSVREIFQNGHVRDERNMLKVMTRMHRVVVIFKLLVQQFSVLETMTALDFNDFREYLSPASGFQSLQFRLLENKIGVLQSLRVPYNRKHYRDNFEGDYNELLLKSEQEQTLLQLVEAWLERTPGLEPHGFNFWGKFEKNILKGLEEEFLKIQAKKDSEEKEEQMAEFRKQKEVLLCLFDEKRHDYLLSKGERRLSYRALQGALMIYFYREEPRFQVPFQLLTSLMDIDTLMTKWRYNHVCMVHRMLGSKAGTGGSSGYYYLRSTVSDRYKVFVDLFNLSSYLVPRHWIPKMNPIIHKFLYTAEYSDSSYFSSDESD

Row | SMILES | IC50 [1] [µM] | IC50 [2] [µM] | IC50 [3] [µM] | IC50 [4] [µM] | IC50 [5] [µM]
1 | Cc1cc(=O)n2c3c(c4c(cc13)c(CN(C)C)cc(=O)n4C)OC2 | 27 | 17.6 | – | – | –
2 | O=Cc1ccc(O)c2ncccc12 | 4.37 | > 100 | – | – | –
3 | Fc1ccc2c(/C=C/c3cccnc3)c[nH]c2c1 | 478 | – | 350 | 0.05 | –
4 | O=S(=O)(/N=C/c1c(O)ccc2ccccc12)c1cccs1 | 1.39 | 11.3 | – | – | –
5 | O=C1c2ccccc2C2=C3C(O)=NN=C3CCN12 | 1.72 | 4.35 | – | – | –
6 | CC1=C(O)C(=O)C=C2C1=CC=C1[C@@]2(C)CC[C@@]2(C)[C@@H]3C[C@](C)(C(=O)O)CC[C@]3(C)CC[C@]12C [CELASTROL] | 8.41 | > 100 | – | – | –
7 | CC1Oc2cc3c(-c4c(O)cc(O)c5c(O)c6c(cc45)OC(C)C(C)C6=O)c(O)cc(O)c3c(O)c2C(=O)C1C (centres undefined) | 44.1 | 48.6 | – | – | –
8 | Oc1ccccc1-c1nc2c3ccccc3c3ccccc3c2[nH]1 | 11.8 | 12.3 | – | – | –
9 | O=[N+]([O-])c1cc([N+](=O)[O-])c2cccnc2c1O | 11.1 | 22.7 | – | – | –
10 | O=[N+]([O-])c1cc(F)c2cccnc2c1O | 14.6 | 30.2 | – | – | –
11 | NS(=O)(=O)NCCNc1nonc1C(=NO)Nc1ccc(F)c(Br)c1 [EPACADOSTAT] | – | 3.43 | – | – | 2.12
12 | Nc1nonc1C(=NO)Nc1ccc(F)c(Cl)c1 | – | 3.62 | – | – | 3.47
13 | COCCn1c2nc(=O)n(-c3ccccc3)c(=O)c-2nc2ccccc21 | 23.8 | 33.7 | – | – | –
14 | O=[N+]([O-])/C=C/c1cc2ccccc2[nH]1 | 2.79 | > 100 | – | – | –
